Results taken from publication PMC8041284, “Tunable Methacrylamides for Covalent Ligand Directed Release Chemistry” (Journal of the American Chemical Society, 2021).

The compounds below were run against BTK (Homo sapiens, UniProt Q06187) (assay: biochemical). Conditions: read-out: BTK inhibition (%).
BTK, sequence (Q06187 402-655 limits assumed): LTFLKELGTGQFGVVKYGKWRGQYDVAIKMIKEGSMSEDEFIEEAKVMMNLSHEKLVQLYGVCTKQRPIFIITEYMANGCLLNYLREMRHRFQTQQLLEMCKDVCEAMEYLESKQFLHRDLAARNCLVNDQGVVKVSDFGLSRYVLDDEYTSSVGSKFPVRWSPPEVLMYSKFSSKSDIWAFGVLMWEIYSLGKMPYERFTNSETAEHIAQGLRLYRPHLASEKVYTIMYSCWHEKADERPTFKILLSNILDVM

SMILES | inhibition at 10 µM
CC(C(=O)O)C(=O)O [PCM-0214910] | -6.2%
Cc1cc(N2CCN([C@@H]3CN[C@H](C(=O)N4CCSC4)C3)CC2)n(-c2ccccc2)n1 [PCM-0214840] | 0.8%

Same assay, conditions: read-out: BTK inhibition (%), 0.75 uM BTK, […] probe 3l, 15 min preincubation

SMILES | inhibition at 10 µM
CC(C)=CCC/C(C)=C/C=O [PCM-0215914] | -17%
CN1CCCC(n2nc(Cc3ccc(Cl)cc3)c3ccccc3c2=O)CC1 (stereo not shown) [PCM-0086017] | 5.5%
C[C@@H](C(=O)Nc1ccc(Cl)cc1)C1CCC(c2ccnc3ccc(F)cc23)CC1 (stereo partly shown) [PCM-0216246] | 27%
OCC(CO)N[C@H]1C[C@](O)(CO)[C@@H](O)[C@H](O)[C@H]1O [PCM-0214770] | -8.6%
CCCc1cc(C)[nH]c(=O)c1CNC(=O)c1cc(-c2ccc(N3CCN(C(C)C)CC3)nc2)cc2c1cnn2C(C)C [PCM-0095761] | -29.3%
COCCOC(=O)C1=C(C)NC(C)=C(C(=O)OC(C)C)C1c1cccc([N+](=O)[O-])c1 (stereo not shown) [PCM-0064753] | 5.4%
COc1ccc(CCO[C@@H]2O[C@H](CO[C@@H]3OC[C@H](O)[C@H](O)[C@H]3O)[C@@H](OC(=O)/C=C/c3ccc(O)c(OC)c3)[C@H](O[C@@H]3O[C@@H](C)[C@H](O)[C@@H](O)[C@H]3O)[C@H]2O)cc1O [PCM-0216311] | 3.9%
O=c1cc(-c2ccc(O)c(O)c2)oc2cc(O)cc(O)c12 [PCM-0086559] | 84.8%
Nc1nc(Nc2ccc(S(N)(=O)=O)cc2)nn1C(=O)c1c(F)cccc1F [PCM-0095002] | 84.1%
CC12CC3CC(C)(C1)CC(N)(C3)C2 [PCM-0064948] | 7.8%
N#CCC1(n2cc(-c3ncnc4[nH]ccc34)cn2)CN(C2CCN(C(=O)c3ccnc(C(F)(F)F)c3F)CC2)C1 [PCM-0216009] | 12.4%
COC(=O)N1CCN(Cc2cccc(NC(=O)Nc3ccc(C)nc3)c2F)CC1 [PCM-0214694] | 0.8%
N#Cc1c(O)c2c(-c3ccc(-c4ccccc4O)cc3)csc2[nH]c1=O [PCM-0095407] | 51.7%
Oc1ccc(/C=C/c2cc(O)cc(O)c2)cc1 [PCM-0065629] | 23.3%
CN(Cc1ccc(C(C)(C)C)cc1)Cc1cccc2ccccc12 [PCM-0086068] | 62.3%
Nc1nccc(Oc2ccc3c(C(=O)Nc4cccc(C(F)(F)F)c4)cccc3c2)n1 [PCM-0215714] | -2.8%
COC(=O)[C@H]1[C@H]2C[C@@H]3c4[nH]c5cc(OC)ccc5c4CCN3C[C@H]2C[C@@H](OC(=O)c2cc(OC)c(OC)c(OC)c2)[C@@H]1OC [PCM-0214638] | 35%
Clc1ccc2nsnc2c1NC1=NCCN1 [PCM-0065635] | 14.8%
COc1ccc(O)cc1 [PCM-0090031] | 12.5%
O=C[C@H](O)[C@@H](O)[C@H](O[C@H]1O[C@H](CO)[C@@H](O[C@H]2O[C@H](CO)[C@@H](O[C@H]3O[C@H](CO)[C@@H](O)[C@H](O)[C@H]3O)[C@H](O)[C@H]2O)[C@H](O)[C@H]1O)[C@H](O)CO [PCM-0216456] | 0.8%
Nc1ccc(-c2ccc3ncc4ccc(=O)n(-c5cccc(C(F)(F)F)c5)c4c3c2)cn1 [PCM-0095430] | 9.7%
CCn1cc(C(=O)O)c(=O)c2cc(F)c(N3CCNCC3)cc21 [PCM-0085898] | -12.8%
O=C(O)c1cc(O)c2c(c1)[C@@H]([C@H]1c3cc(C(=O)O)cc(O)c3C(=O)c3c(O[C@@H]4O[C@H](CO)[C@@H](O)[C@H](O)[C@H]4O)cccc31)c1cccc(O[C@@H]3O[C@H](CO)[C@@H](O)[C@H](O)[C@H]3O)c1C2=O [PCM-0086913] | 84.1%
CCOC(=O)C1=C(C)NC(C)=C(C(=O)OC)C1c1cccc([N+](=O)[O-])c1 (stereo not shown) [PCM-0064714] | -28%

SMILES | inhibition at 10 µM
C[C@H](NC(=O)c1c(N)nn2cccnc12)c1cc2cccc(C#Cc3cnn(C)c3)c2c(=O)n1-c1ccccc1 [PCM-0215846] | 20%
Cc1cc(C)c(CNC(=O)c2cc(-c3ccc(N4CCN(C)CC4)nc3)cc3c2c(C)cn3C(C)C)c(=O)[nH]1 [PCM-0215513] | -6.9%
CN1CCN(C2=Nc3cc(Cl)ccc3Nc3ccccc32)CC1 [PCM-0064549] | 4.7%
CO[C@H]1C[C@H](O[C@@H]2/C(C)=C/C[C@@H]3C[C@@H](C[C@]4(CC[C@H](C)[C@@H](C5CCCCC5)O4)O3)OC(=O)[C@@H]3C=C(C)/C(=N/O)[C@H]4OC/C(=C\C=C\[C@@H]2C)[C@]43O)O[C@@H](C)[C@@H]1O [PCM-0216231] | 41.7%
CCS(=O)(=O)Nc1ccc2[nH]c(O)c(C(=Nc3ccc(CN4CCCCC4)cc3)c3ccccc3)c2c1 [PCM-0095089] | 82.1%
CS(=O)(=O)Nc1cc2occ(NC=O)c(=O)c2cc1Oc1ccccc1 [PCM-0216251] | 6.2%
OCCn1cc(-c2ccc3c(c2)CC/C3=N\O)c(-c2ccncc2)n1 [PCM-0094883] | 16.6%
NCCC[C@H](N)C(=O)O [PCM-0216253] | -3.4%
CC(C)=CCC/C(C)=C/Cc1c(O)c(CC=C(C)C)c2c(c1O)C(=O)C1=C[C@@H]3C[C@H]4C(C)(C)O[C@@](C/C=C(/C)C(=O)O)(C3=O)[C@@]14O2 [PCM-0216347] | 100%
COc1cc2ncnc(Nc3cccc(Cl)c3)c2cc1OC [PCM-0012125] | 21.4%
O=C(O)CCn1c(O)c(C2=c3cc(Cl)ccc3=NC2=O)sc1=S [PCM-0215854] | 0.8%
CC[C@H]1OC(=O)[C@H](C)[C@@H](O[C@H]2C[C@@](C)(OC)[C@@H](O)[C@H](C)O2)[C@H](C)[C@@H](O[C@@H]2O[C@H](C)C[C@H](N(C)C)[C@H]2O)[C@](C)(OC)C[C@@H](C)C(=O)[C@H](C)[C@@H](O)[C@]1(C)O [PCM-0214635] | 9.3%
CC[C@H](C)C(=O)O[C@H]1C[C@H](O)C=C2C=C[C@H](C)[C@H](CC[C@@H](O)C[C@@H](O)CC(=O)O)[C@H]21 [PCM-0214717] | -3.1%
CC(C)C(C(=O)O)N1C(=O)/C(=C\c2ccc(Br)cc2)SC1=S (stereo not shown) [PCM-0215783] | -3.1%
CCNC(=O)[C@@H]1CCCN1C(=O)[C@H](CCCN=C(N)N)NC(=O)[C@H](CC(C)C)NC(=O)[C@@H](C)NC(=O)[C@H](Cc1ccc(O)cc1)NC(=O)[C@H](CO)NC(=O)[C@H](Cc1c[nH]c2ccccc12)NC(=O)[C@H](Cc1cnc[nH]1)NC(=O)C1CCC(=O)N1 (stereo partly shown) [PCM-0216272] | 23.8%
Cc1cc(O)c2c(c1)C(=O)c1cc(O)cc(O)c1C2=O [PCM-0065315] | 69.3%
CCCC(=O)Nc1ccc(OCC(O)CNC(C)C)c(C(C)=O)c1 (stereo not shown) [PCM-0085895] | -12.5%
COc1cc(C)[nH]c(=O)c1CNC(=O)c1c(C)n([C@H](C)C2CCN(CC(F)(F)F)CC2)c2ccccc12 [PCM-0214592] | 21.6%
CCCCCCCC/C=C\CCCCCCCC(=O)OCC [PCM-0216145] | 6.9%
Clc1ccc(C(c2ccccc2Cl)C(Cl)Cl)cc1 (stereo not shown) [PCM-0064460] | 19.5%
CCOC(=O)NCCCC(=O)NCCc1ccccc1 [PCM-0215356] | -17%
CC(=O)N=c1sc(S(N)(=O)=O)nn1C [PCM-0095591] | -7.8%
O=S(=O)(O)CCSSCCS(=O)(=O)O [PCM-0090667] | -8.6%
Cc1cccc(Nc2nc(-c3ccncc3)cs2)c1 [PCM-0094960] | -1.6%

SMILES | inhibition at 10 µM
NC(N)=NC(N)=NCCc1ccccc1 [PCM-0085798] | 4.1%
c1ccc2c(Oc3nc(Nc4ccc(N5CCOCC5)cc4)c4ncn(C5CCCCC5)c4n3)cccc2c1 [PCM-0215227] | 17.9%
O=c1c(N=Nc2nccs2)c(-c2ccccc2)[nH]n1-c1nc(-c2ccccc2)cs1 [PCM-0215938] | 98.1%
CC#CC(=O)Nc1ccc2ncnc(Nc3cccc(Br)c3)c2c1 [PCM-0215449] | 103%
Cc1ccc(Sc2ccccc2N2CCNCC2)c(C)c1 [PCM-0095609] | -6.9%
C[C@@H]1C/C=C/C=C/C=C/C=C/[C@H](O[C@@H]2O[C@H](C)[C@@H](O)[C@H](N)[C@@H]2O)C[C@@H]2O[C@](O)(C[C@@H](O)C[C@H]3O[C@@H]3/C=C/C(=O)O1)C[C@H](O)[C@H]2C(=O)O [PCM-0214709] | -22.6%
C[C@@H](O)[C@H]1C(=O)N2C(C(=O)O)=C(S[C@@H]3CN[C@H](C(=O)N(C)C)C3)[C@H](C)[C@H]12 [PCM-0095036] | -14.8%
Cc1cc(C(=O)O)n[nH]1 [PCM-0216163] | -0.8%
N#C/C(=C1/SC[C@@H](c2ccc(Cl)cc2Cl)S1)n1ccnc1 [PCM-0214788] | 3.9%
COc1cc2c(Nc3ccc(NC(=O)c4ccccc4)cc3)ncnc2cc1OCCCN1CCOCC1 [PCM-0094881] | 77.9%
CC1=NCC[C@@H](C(=O)O)N1 [PCM-0216558] | -13.6%
O=c1cc(-c2ccc(O)cc2)oc2cc(O)c([C@@H]3O[C@H](CO)[C@@H](O)[C@H](O)[C@H]3O)c(O)c12 [PCM-0216601] | 11.6%
Clc1cccc(Cl)c1NC1=NCCN1 [PCM-0064514] | -19.5%
COc1cc2ncnc(Nc3ccc(F)c(Cl)c3)c2cc1NC(=O)/C=C/CN1CCCCC1 [PCM-0095444] | 18.6%
COc1cc2nccc(Oc3ccc(NC(=O)NC4CC4)c(Cl)c3)c2cc1C(N)=O [PCM-0095014] | 36.6%
COc1ccc(C=O)c(O)c1 [PCM-0216133] | 5.4%
COc1cccc(-c2cc(NCc3ccc4c(c3)OCO4)nc(N)n2)c1 [PCM-0215610] | -7.7%
CONC(=O)c1ccccc1Nc1cc(Nc2cc(C)nn2C(C)C)ncc1Cl [PCM-0215811] | -10.3%
O[C@@H](COc1cccc2ncccc12)CN1CCN(C2c3ccccc3[C@@H]3[C@H](c4ccccc42)C3(F)F)CC1 (stereo partly shown) [PCM-0095161] | 103%
O=C(O)c1ccc(Br)c(O)c1 [PCM-0216168] | -23.9%
CCCC1O[C@@H]2C[C@H]3[C@@H]4CCC5=CC(=O)C=C[C@]5(C)[C@H]4[C@@H](O)C[C@]3(C)[C@]2(C(=O)CO)O1 (stereo partly shown) [PCM-0214610] | -13.1%
CN(C)CCOC(c1ccccc1)c1ccccc1 [PCM-0065230] | 2.1%
Cc1cnc(-c2cc(N3CCN(C(=O)CCS(C)(=O)=O)CC3)ncc2Cl)c(C)c1 [PCM-0095343] | 7.8%
